Patent US20130090329A1, “Methods and Compositions for the Treatment of Psychotic Disorders Through the Identification of the Olanzapine Poor Response Predictor Genetic Signature” (SUREGENE, LLC, priority 2011, published 2013)
Marks after values point to notes of the source that are not given here.

Key:
[1] = test system: patients suffering from schizophrenia and related disorders; assay: CATIE study: categorical responders (change in total PANSS ≦−10%, LOCF) by OPRP status; format: in vivo, human; details: for Responders: change in total PANSS ≦−10%
Method: A total of 738 subjects consented to provide DNA for genetic study. Details regarding SNP genotyping and quality control have been recently published (Sullivan et al., 2008). Only retrospective genetic analyses, judged to be exempt from human studies requirements by an IRB, were conducted in the current study. For the genetic analyses presented herein, the inventors combined and evaluated drug response data for both Phase I and Phase IB of the CATIE study. All tested patients were studied using well established clinical endpoints comparing baseline, intermediate, and last observation carried forward (LOCF) for the PANSS scores using CATIE data. LOCF analysis is a commonly used clinical endpoint for clinical trials for neuropsychiatric drugs, with particular changes in PANSS scores being used to indicate clinically significant response (Leucht et al., 2009). […] As described above CATIE patients were studied using well established clinical endpoints comparing baseline, intermediate, and last observation carried forward (LOCF) for the PANSS scores.

[2] = test system: patients suffering from schizophrenia and related disorders; assay: CATIE study: worsening of symptoms (LOCF delta PANSS ≧0%) by OPRP status; format: in vivo, human; details: for Worsening: delta PANSS ≧0%
Method: (§1) A total of 738 subjects consented to provide DNA for genetic study. […] Only retrospective genetic analyses, judged to be exempt from human studies requirements by an IRB, were conducted in the current study. For the genetic analyses presented herein, the inventors combined and evaluated drug response data for both Phase I and Phase IB of the CATIE study. All tested patients were studied using well established clinical endpoints comparing baseline, intermediate, and last observation carried forward (LOCF) for the PANSS scores using CATIE data. LOCF analysis is a commonly used clinical endpoint for clinical trials for neuropsychiatric drugs, with particular changes in PANSS scores being used to indicate clinically significant response (Leucht et al., 2009).
The inventors also examined the impact of the OPRP status on whether patients' symptoms actually got worse when treated with olanzapine. This is an important safety consideration for antipsychotic drugs response, and failure of a drug to display the desired clinical response on a specific subset of patients could impact the drug label, being contraindicated for a particular subset of patients (see Example 5: “Risk Management Involving the OPRP Genetic Test). […]

psychopathology (PANSS) [3] = details: weighted mean difference in PANSS score (absolute); negative = olanzapine superior; cited from earlier work
[4] = test system: patients suffering from schizophrenia and related disorders; assay: CATIE study: percent change in total PANSS from baseline to LOCF, segmented by OPRP genetic signature status; format: in vivo, human; details: for Mean difference between olanzapine and labelled atypical antipsychotic, CATIE OPRP−: OPRP negative subjects; for Mean difference between olanzapine and labelled atypical antipsychotic, CATIE OPRP− / Mean difference between olanzapine and labelled atypical antipsychotic, CATIE unsegemented: delta PANSS, negative = olanzapine superior; for Mean difference in delta PANSS: olanzapine-treated OPRP positive group minus comparator group: comparator = OPRP positive subjects treated with the labelled drug, positive = poorer response to olanzapine; for Effect size (mean difference / standard deviation): olanzapine OPRP positive versus labelled drug OPRP positive
Source text: Genotype and phenotype data for the CATIE trial were recently made available to qualified researchers through the NIMH Center for Collaborative Genetic Studies on Mental Disorders. The sample consisted of a total of 738 patients. For the present study, the inventors assigned OPRP status to 628 subjects, including 411 subjects of self-reported European ancestry and 217 subjects of self-reported African ancestry. Further details on the patient population are described in the study by Sullivan and coworkers (Sullivan et al., 2008). The CATIE SNP genotype data evaluated included a total of 492,900 SNPs located throughout the genome.
The design of the CATIE study has been described in detail by others (Lieberman et al., 2005; Stroup et al., 2003). […] Subjects that failed Phase I treatment with the typical antipsychotic perphenazine were treated differently than those subjects that failed phase I treatment with an atypical antipsychotic. Instead of entering into Phase II of the trial, subjects who switched from perphenazine entered Phase IB. […] Subjects who failed Phase IB then entered Phase II.
as §1
Using the clinical data from the CAIE trial, the inventors derived several different metrics used for quantifying response in clinical trials of antipsychotic medications. The most commonly used psychometric instrument is the Positive and Negative Syndrome Scale (PANSS), a 30-item semi-quantitative instrument scored by clinical professionals (Kay et al., 1987). The greater the decrease in PANSS score, the better the clinical response. The most direct measure of clinical response is absolute change in PANSS score. In addition to absolute change, the improvement is often reported as a percentage change from baseline PANSS score.
To examine the relationship of genotypes to drug response the inventors used the publically available PLINK software (Purcell et al., 2007; available on the world wide web at pngu.mgh.harvard.edu/purcell/plink/) and Helix tree (Version 6.4.1; Golden Helix, Bozeman, Mont.). The inventors used Last observation Carry Forward (LOCF) delta PANSS values as a measure of response to antipsychotic treatment. […] The inventors refined the test further by conducting association analysis on using only those subjects that comprised the TT genotype of rs11960832.
As mentioned previously, the mean change in absolute or percent PANSS provides an important measure of efficacy in patients undergoing antipsychotic treatments. Indeed, many pivotal trials in the psychosis field used absolute and/or percentage change in PANSS Score as the primary endpoint (Leucht et al., 2009).

psychopathology = details: meta-analysis, Davis et al. (2003); cited from earlier work
psychopathology (PANSS) [5] = details: meta-analysis, population not segmented by OPRP; negative = greater reduction in PANSS; cited from earlier work
[6] = Caucasian patients, OPRP Negative, LOCF
[7] = Caucasian patients, OPRP Positive, LOCF
[8] = OPRP Negative subjects, CATIE Phase I and IB, more negative = greater improvement
[9] = OPRP Positive subjects, CATIE Phase I and IB, more negative = greater improvement

Row | SMILES | Number of individuals with change in total PANSS ≦−10% (responders) ([1]; OPRP Negative) | Number of individuals with change in total PANSS ≧−10% (non-responders) ([1]; OPRP Negative) | Responders ([1]; OPRP Negative) | Number of individuals with change in total PANSS ≦−10% (responders) ([1]; OPRP Positive) | Number of individuals with change in total PANSS ≧−10% (non-responders) ([1]; OPRP Positive) | Responders ([1]; OPRP Positive) | Number of individuals with delta PANSS ≦0% (non-worsening) ([2]; OPRP Negative, LOCF) | Number of individuals with delta PANSS ≧0% (worsening symptoms) ([2]; OPRP Negative, LOCF) | Worsening ([2]; OPRP Negative, LOCF) | Number of individuals with delta PANSS ≦0% (non-worsening) ([2]; OPRP Positive, LOCF) | Number of individuals with delta PANSS ≧0% (worsening symptoms) ([2]; OPRP Positive, LOCF) | Worsening ([2]; OPRP Positive, LOCF) | Mean difference between olanzapine and labelled atypical antipsychotic, Meta-analysis (psychopathology (PANSS) [3]) | DELTA PANSS % (mean change in PANSS score from baseline to LOCF) [4, 8] | DELTA PANSS % (mean change in PANSS score from baseline to LOCF) [4, 9] | Mean difference between olanzapine and labelled atypical antipsychotic, CATIE OPRP− [4] | Mean difference in delta PANSS: olanzapine-treated OPRP positive group minus comparator group [4] | Mean difference between olanzapine and labelled atypical antipsychotic, CATIE unsegemented [4] | Effect size (mean difference / standard deviation) ([4]; CATIE) | Effect Size vs. Placebo (psychopathology (PANSS) [5]) | also measured
1 | OCCOCCN1CCN(C2=Nc3ccccc3Sc3ccccc32)CC1 [Quetiapine] | 48 | 99 | 33%^+++ | 4 | 14 | 22% | 95 | 62 | 42%^+++ | 9 | 9 | 50% | −3.7 | −3.2^++++ % | −1.2% | −8.4 | 5.5 | −6.2 | 0.3^b | −0.42 | Number of individuals with delta PANSS ≦0% (non-worsening) [2, 6]: 85; Number of individuals with delta PANSS ≧0% (worsening symptoms) [2, 6]: 62; Worsening ([2]; Caucasian patients, OPRP Negative): 42%*; Number of individuals with delta PANSS ≦0% (non-worsening) [2, 7]: 2; Number of individuals with delta PANSS ≧0% (worsening symptoms) [2, 7]: 7; Worsening ([2]; Caucasian patients, OPRP Positive): 78%; Response of OPRP positive group compared with OPRP negative group (percent change in PANSS) ([4]; Caucasian subjects, CATIE): responded worse; DELTA PANSS % (mean change in PANSS score from baseline to LOCF) ([4]; Caucasian subjects, OPRP Negative): −0.6%; DELTA PANSS % (mean change in PANSS score from baseline to LOCF) ([4]; Caucasian subjects, OPRP Positive): 12%; Effect size (mean difference / standard deviation) ([4]; CATIE, listed as quetiapine): 0.3; Effect Size vs. FGA (first generation antipsychotics) (psychopathology): 0.01
2 | Cc1nc2n(c(=O)c1CCN1CCC(c3noc4cc(F)ccc34)CC1)CCCC2 [Risperidone] | 55 | 91 | 38%^+ | 7 | 12 | 35%^ | 91 | 55 | 38%^+++ | 13 | 7 | 35%^ | −1.9 |  |  |  |  |  |  | −0.59 | 
3 | O=C1Cc2cc(CCN3CCN(c4nsc5ccccc45)CC3)c(Cl)cc2N1 [Ziprasidone] | 16 | 53 | 23%^++++ | 2 | 9 | 18% | 35 | 34 | 49%^++++ | 7 | 4 | 36% | −8.3 | −1.5^++++ % | −0.5% | −10.1 | 4.8 | −4.9 | 0.2^b | −0.48 | Effect size (mean difference / standard deviation) ([4]; CATIE, listed as ziprasidone): 0.2; Effect Size vs. FGA (first generation antipsychotics) (psychopathology): −0.04
